Common to all, as to design: scale not given: the % may be the effect or the level left
The target of test [1] is T1, Protein kinase C zeta type (Homo sapiens) (UniProt Q05513).
T1 sequence (whole entry): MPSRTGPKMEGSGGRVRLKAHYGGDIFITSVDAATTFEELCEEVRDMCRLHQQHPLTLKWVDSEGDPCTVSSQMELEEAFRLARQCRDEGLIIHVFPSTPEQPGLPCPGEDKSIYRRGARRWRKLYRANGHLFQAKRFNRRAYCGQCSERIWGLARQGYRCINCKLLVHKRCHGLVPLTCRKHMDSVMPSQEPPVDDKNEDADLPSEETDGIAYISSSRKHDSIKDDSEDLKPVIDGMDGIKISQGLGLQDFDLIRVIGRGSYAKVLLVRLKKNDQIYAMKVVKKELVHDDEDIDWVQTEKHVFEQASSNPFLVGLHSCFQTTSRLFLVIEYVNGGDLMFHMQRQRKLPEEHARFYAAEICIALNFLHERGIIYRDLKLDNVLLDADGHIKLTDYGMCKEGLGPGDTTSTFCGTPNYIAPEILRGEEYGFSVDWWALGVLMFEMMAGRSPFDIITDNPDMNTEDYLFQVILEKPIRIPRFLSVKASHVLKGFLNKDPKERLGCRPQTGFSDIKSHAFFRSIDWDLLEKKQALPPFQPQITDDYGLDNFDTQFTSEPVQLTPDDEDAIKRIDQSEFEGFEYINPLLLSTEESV
Put plainly: Percentage inhibition against Protein kinase C zeta at 50 uM.

Test [2] addresses Protein kinase C beta type (Homo sapiens) (UniProt P05771). Put plainly: Percentage inhibition of Protein kinase C beta 1 at 50 uM.
Test [3] has as its target Ribosomal protein S6 kinase beta-1 (Homo sapiens) (UniProt P23443). As to the kind of experiment: Percentage inhibition of Ribosomal protein S6 kinase at 50 uM.
Test [4] addresses Protein kinase C delta type (Homo sapiens) (UniProt Q05655). As to the kind of experiment: Percentage inhibition of Protein kinase C delta at 50 uM.
Test [5] concerns the target Protein kinase C theta type (Homo sapiens) (UniProt Q04759). Put plainly: Percentage inhibition of Protein kinase C theta at 50 uM.
Test [6] addresses T2, Protein kinase C iota type (Homo sapiens) (UniProt P41743).
T2 sequence (whole entry): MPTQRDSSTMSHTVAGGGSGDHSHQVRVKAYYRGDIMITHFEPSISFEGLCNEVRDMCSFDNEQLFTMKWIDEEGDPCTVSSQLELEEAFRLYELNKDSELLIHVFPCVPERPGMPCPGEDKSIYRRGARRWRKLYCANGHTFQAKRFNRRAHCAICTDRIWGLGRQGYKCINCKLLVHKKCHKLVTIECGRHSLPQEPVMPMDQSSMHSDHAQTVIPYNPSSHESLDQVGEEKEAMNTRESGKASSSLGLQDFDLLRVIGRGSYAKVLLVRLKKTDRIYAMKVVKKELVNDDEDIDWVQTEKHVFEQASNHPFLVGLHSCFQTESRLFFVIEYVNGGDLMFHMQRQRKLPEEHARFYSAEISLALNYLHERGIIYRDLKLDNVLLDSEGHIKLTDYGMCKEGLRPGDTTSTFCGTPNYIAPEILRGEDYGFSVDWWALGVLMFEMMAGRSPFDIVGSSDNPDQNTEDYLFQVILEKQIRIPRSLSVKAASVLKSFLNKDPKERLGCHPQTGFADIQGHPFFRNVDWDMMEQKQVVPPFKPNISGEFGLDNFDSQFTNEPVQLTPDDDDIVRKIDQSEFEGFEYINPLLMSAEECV
As to the kind of experiment: Percentage inhibition of Protein kinase C iota at 50 uM.

Test [7] has as its target Protein kinase C beta type (Homo sapiens) (UniProt P05771). As to the kind of experiment: Percentage inhibition of Protein kinase C beta 2 at 50 uM.
In test [8] the target is T3, Serine/threonine-protein kinase D1 (Homo sapiens) (UniProt Q15139).
T3 sequence (whole entry): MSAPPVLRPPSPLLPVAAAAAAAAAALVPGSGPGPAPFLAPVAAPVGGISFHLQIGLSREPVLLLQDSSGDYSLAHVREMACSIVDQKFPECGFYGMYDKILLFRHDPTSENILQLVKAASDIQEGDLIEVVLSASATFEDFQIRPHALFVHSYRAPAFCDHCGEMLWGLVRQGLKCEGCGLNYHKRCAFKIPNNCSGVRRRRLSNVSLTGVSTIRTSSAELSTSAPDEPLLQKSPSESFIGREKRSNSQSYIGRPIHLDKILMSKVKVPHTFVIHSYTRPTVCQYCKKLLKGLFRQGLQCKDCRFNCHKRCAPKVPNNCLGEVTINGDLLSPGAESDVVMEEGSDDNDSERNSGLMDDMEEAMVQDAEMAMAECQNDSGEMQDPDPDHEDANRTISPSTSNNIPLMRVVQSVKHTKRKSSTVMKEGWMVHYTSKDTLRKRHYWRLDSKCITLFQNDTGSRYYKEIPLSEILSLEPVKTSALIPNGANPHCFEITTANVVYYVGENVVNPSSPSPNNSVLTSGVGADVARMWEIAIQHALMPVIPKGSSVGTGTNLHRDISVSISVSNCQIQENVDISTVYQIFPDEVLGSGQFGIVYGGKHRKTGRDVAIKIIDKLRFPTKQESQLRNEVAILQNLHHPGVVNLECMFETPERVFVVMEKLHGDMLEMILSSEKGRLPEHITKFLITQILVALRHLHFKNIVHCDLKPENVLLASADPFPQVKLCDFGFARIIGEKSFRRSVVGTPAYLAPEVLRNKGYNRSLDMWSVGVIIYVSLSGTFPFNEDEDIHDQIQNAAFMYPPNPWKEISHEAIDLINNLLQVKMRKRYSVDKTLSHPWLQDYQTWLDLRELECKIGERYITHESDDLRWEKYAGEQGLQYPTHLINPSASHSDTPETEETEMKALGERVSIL
Put plainly: Percentage inhibition of Protein kinase C mu at 50 uM.

Test [9] addresses Protein kinase C alpha type (Homo sapiens) (UniProt P17252). Put plainly: Percentage inhibition of Protein kinase C alpha at 50 uM.
Test [10] has as its target T4, Protein kinase C epsilon type (Homo sapiens) (UniProt Q02156).
T4 sequence (whole entry): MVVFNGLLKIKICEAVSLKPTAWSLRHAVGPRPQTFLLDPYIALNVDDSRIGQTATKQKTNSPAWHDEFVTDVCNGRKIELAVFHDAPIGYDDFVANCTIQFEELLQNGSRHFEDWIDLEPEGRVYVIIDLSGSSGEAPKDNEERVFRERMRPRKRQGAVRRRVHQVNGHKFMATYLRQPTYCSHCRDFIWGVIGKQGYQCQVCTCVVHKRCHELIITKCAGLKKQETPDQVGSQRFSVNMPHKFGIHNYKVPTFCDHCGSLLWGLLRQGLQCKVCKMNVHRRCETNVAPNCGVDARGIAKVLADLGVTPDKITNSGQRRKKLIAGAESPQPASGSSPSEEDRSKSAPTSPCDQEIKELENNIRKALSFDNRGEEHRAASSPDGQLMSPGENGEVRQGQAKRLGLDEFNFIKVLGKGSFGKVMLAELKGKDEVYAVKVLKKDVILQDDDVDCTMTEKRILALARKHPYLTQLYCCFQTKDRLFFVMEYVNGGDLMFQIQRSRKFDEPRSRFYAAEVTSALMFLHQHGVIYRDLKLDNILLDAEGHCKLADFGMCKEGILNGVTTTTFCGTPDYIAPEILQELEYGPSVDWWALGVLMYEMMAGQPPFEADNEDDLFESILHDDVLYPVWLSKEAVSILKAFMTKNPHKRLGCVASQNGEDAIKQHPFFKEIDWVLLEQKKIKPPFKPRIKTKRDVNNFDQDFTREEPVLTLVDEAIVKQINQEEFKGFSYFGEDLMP
As to the kind of experiment: Percentage inhibition of Protein kinase C epsilon at 50 uM.

Test [11] addresses Protein kinase C eta type (Homo sapiens) (UniProt P24723). As to the kind of experiment: Percentage inhibition of Protein kinase C eta at 50 uM.
Test [12] deals with Protein kinase C gamma type (Homo sapiens) (UniProt P05129). As to the kind of experiment: Percentage inhibition of Protein kinase C gamma at 50 uM.

Protein kinase C beta type (Homo sapiens), sequence (P05771 2-671 limits assumed): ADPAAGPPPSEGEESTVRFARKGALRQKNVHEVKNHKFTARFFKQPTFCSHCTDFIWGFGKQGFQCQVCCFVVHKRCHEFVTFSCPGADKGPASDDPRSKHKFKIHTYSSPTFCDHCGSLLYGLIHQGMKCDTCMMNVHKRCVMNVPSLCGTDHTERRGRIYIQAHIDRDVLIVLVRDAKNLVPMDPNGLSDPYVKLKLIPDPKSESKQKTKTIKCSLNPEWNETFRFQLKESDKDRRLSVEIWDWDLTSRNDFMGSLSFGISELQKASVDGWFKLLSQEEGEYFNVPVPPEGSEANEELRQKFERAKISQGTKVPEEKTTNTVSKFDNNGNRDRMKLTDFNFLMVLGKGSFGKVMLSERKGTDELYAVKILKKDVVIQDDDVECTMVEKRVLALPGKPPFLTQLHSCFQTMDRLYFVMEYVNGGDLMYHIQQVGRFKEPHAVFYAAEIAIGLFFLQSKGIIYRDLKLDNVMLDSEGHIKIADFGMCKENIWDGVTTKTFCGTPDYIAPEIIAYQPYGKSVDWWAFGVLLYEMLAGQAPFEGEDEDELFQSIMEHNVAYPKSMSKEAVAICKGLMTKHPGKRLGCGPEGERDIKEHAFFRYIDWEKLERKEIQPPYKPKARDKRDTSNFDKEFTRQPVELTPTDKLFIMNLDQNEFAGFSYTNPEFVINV
Ribosomal protein S6 kinase beta-1 (Homo sapiens), sequence (P23443 whole entry, looked up): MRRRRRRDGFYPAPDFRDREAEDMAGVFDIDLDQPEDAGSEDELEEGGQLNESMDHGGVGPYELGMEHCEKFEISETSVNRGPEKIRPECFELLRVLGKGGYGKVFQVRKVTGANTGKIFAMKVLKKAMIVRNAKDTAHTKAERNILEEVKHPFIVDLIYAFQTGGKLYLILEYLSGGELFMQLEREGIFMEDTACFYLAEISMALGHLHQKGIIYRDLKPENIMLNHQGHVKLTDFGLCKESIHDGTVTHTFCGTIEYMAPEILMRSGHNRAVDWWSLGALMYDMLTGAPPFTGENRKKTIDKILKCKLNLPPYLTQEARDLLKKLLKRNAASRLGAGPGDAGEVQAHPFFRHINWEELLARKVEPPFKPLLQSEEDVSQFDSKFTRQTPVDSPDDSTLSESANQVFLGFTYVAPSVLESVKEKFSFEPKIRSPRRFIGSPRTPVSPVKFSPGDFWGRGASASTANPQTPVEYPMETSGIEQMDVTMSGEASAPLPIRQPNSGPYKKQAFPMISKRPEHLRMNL
Protein kinase C delta type (Homo sapiens), sequence (Q05655 whole entry, looked up): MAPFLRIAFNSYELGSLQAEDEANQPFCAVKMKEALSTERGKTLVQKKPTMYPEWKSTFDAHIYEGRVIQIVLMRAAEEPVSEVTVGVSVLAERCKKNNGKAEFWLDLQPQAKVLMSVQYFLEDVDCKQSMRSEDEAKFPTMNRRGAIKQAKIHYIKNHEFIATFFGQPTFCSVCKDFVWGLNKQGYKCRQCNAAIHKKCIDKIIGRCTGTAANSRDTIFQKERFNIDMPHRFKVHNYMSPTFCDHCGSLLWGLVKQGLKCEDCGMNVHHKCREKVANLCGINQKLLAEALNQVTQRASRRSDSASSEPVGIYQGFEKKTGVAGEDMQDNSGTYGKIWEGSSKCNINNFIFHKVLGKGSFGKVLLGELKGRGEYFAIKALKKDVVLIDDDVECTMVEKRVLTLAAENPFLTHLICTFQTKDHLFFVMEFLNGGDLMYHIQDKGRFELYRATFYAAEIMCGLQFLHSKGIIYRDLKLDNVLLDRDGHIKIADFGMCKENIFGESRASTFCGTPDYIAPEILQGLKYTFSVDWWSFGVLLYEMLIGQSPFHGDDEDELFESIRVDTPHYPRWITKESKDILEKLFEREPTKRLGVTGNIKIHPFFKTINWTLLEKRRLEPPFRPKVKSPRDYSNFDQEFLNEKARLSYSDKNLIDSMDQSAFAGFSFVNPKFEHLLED
Protein kinase C eta type (Homo sapiens), sequence (P24723 whole entry): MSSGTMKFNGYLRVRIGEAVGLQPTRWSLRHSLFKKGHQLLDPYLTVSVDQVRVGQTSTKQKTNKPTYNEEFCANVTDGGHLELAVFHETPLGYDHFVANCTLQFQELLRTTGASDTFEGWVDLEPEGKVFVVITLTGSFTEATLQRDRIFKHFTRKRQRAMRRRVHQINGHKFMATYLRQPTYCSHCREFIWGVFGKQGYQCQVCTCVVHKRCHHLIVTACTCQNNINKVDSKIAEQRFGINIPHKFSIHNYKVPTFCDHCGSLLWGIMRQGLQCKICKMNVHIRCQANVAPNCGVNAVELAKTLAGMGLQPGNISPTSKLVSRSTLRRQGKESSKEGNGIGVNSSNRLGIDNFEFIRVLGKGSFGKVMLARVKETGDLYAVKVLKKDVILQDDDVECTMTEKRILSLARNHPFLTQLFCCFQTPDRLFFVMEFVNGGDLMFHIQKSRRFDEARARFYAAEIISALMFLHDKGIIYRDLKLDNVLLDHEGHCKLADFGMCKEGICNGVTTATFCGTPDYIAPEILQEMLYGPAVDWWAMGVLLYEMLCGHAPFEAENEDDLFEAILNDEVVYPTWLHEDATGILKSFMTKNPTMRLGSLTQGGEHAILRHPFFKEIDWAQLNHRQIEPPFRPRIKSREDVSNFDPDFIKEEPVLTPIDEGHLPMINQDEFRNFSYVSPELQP
Protein kinase C theta type (Homo sapiens), sequence (Q04759 whole entry, looked up): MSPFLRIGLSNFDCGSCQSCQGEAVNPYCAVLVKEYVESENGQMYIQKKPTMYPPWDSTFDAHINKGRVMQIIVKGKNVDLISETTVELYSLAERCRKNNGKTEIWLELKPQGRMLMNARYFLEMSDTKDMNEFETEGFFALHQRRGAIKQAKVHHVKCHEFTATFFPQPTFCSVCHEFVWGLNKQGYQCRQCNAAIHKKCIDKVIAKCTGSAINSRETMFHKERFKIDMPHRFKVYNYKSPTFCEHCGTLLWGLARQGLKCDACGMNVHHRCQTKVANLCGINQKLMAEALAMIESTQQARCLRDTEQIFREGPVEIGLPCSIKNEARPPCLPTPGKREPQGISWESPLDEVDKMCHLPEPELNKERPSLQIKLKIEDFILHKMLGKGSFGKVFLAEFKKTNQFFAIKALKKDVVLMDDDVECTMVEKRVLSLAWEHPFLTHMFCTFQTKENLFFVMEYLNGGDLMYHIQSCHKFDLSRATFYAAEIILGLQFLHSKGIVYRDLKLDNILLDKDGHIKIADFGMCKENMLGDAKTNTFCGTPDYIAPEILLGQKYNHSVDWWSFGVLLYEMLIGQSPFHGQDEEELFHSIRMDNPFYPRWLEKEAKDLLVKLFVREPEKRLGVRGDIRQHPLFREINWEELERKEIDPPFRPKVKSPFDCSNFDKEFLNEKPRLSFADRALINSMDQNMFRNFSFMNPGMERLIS

`CCCCCNC1=C(c2cn(C)c3ccccc23)C(=O)N(C)C1=O`: the Activity in [1] was 100%; in test [2], 84%; in test [3], 96%; in test [4], 108%; in test [5], 100%; in test [6], 96%. In addition, the Activity in [7] turned out to be 106%; in [8], 97%; in test [9] it was 95%; in test [10] it was 95%; in test [11] it was 98%; in [12], 115%.

Turning to `CN1C(=O)C(c2c[nH]c3ccccc23)=C(c2cn(CCCN)c3ccccc23)C1=O`, the Activity is 85% in [1]; 78% in test [2]; 28% in [3]; 82% in test [4]; 78% in [5]; 87% in test [6]. The Activity in test [7] came out at 84%; in [8], 88%; in test [9], 66%; in test [10], 10%; in test [11], 55%; in [12] it was 85%.

For the origin of these results see ChEMBL document CHEMBL1139631, “Inhibition of hydrogen peroxide-induced necrotic cell death with 3-amino-2-indolylmaleimide derivatives” (Bioorg Med Chem Lett, 2005).
